Nine compounds from ChEMBL document CHEMBL4392857, “Isolation, Chiral-Phase Resolution, and Determination of the Absolute Configurations of a Complete Series of Stereoisomers of a Rearranged Acetophenone with Three Stereocenters” (2019) can be followed below.

Assay [1] has as its system HUVEC. The experiment in a line: Cytoprotective effect against high glucose-induced oxidative stress in HUVEC assessed as cell viability at 1 uM incubated by MTT assay (reference value: 72.1 to 77.9%). The assay is classed as functional. Particulars: Homo sapiens, read-out: Activity. For orientation: Tetrazolium dyes change colour on reduction, which living cells bring about.

Assay [2] has as its system HUVEC. The experiment in a line: Cytoprotective effect against high glucose-induced oxidative stress in HUVEC assessed as cell viability at 5 uM incubated by MTT assay (reference value: 72.1 to 77.9%). The assay is classed as functional. Particulars: Homo sapiens, read-out: Activity.

Molecules are shown by their SMILES.

`Oc1ccc(/C=C/c2cc(O)cc(O)c2)cc1` [RESVERATROL]: in assay [1], the viability at 1 µM was 86.4%. The viability at 5 µM in assay [2] is 103%.
Take `COC(=O)[C@@]1(O)C(=O)[C@]2(CC=C(C)C)C[C@H](O)C(C)(C)OC2=C1C(C)=O`: in assay [1], the viability at 1 µM was found to be 103%. Further, the viability at 5 µM in assay [2] worked out at 104%.
On the same counts, the results for `COC(=O)[C@]1(O)C(=O)[C@@]2(CC=C(C)C)C[C@H](O)C(C)(C)OC2=C1C(C)=O` are 71.7% and 65.1%.
Regarding `COC(=O)[C@]1(O)C(=O)[C@@]2(CC=C(C)C)C[C@@H](O)C(C)(C)OC2=C1C(C)=O`, the viability at 1 µM in assay [1] turned out to be 79.9%. Moreover, the viability at 5 µM in assay [2] turned out to be 82%.
On the same counts, the results for `COC(=O)[C@@]1(O)C(=O)[C@@]2(CC=C(C)C)C[C@@H](O)C(C)(C)OC2=C1C(C)=O` are 101% and 101%.
Turning to `COC(=O)[C@@]1(O)C(=O)[C@]2(CC=C(C)C)C[C@@H](O)C(C)(C)OC2=C1C(C)=O`, the viability at 1 µM in assay [1] was 75.6%. Moreover, the viability at 5 µM in assay [2] was 62.7%.
As to `COC(=O)[C@]1(O)C(=O)[C@]2(CC=C(C)C)C[C@H](O)C(C)(C)OC2=C1C(C)=O`, in assay [1], the viability at 1 µM came to 94.2%. Also, in assay [2], the viability at 5 µM came to 93%.
As to `COC(=O)[C@@]1(O)C(=O)[C@@]2(CC=C(C)C)C[C@H](O)C(C)(C)OC2=C1C(C)=O`, the viability at 1 µM in assay [1] amounted to 79.9%. Moreover, the viability at 5 µM in assay [2] turned out to be 82%.
On the same counts, the results for `COC(=O)[C@]1(O)C(=O)[C@]2(CC=C(C)C)C[C@@H](O)C(C)(C)OC2=C1C(C)=O` are 103% and 104%.
